ChEMBL document CHEMBL3091360, “Homosecoiridoid alkaloids with amino acid units from the flower buds of Lonicera japonica” (J Nat Prod, 2013)
Activity calls are given as the source filed them. The calls are words filed in the database; no cut-off is given here.

Assays:
HCT-8 = test: Cytotoxicity against human HCT8 cells at 10 uM after 96 hrs by MTT assay; format: functional, cell-based
Bel-7402 = test: Cytotoxicity against human Bel7402 cells at 10 uM after 96 hrs by MTT assay; format: functional, cell-based
KETR3 = test: Cytotoxicity against human Ketr3 cells at 10 uM after 96 hrs by MTT assay; format: functional, cell-based
[1] = test system: Human immunodeficiency virus 1; test: Antiviral activity against HIV1 infected in human 293T cells expressing VSV-G assessed as inhibition of viral p24 production at 10 uM after 48 hrs by ELISA; format: functional, organism-based
BGC-823 = test: Cytotoxicity against human BGC823 cells at 10 uM after 96 hrs by MTT assay; format: functional, cell-based
MCF7 = test: Cytotoxicity against human MCF7 cells at 10 uM after 96 hrs by MTT assay; format: functional, cell-based
[2] = Antiinflammatory activity in rat polymorphonuclear leukocytes assessed as inhibition of PAF-induced release of glucuronidase at 10 uM; format: functional
A549 = test: Cytotoxicity against human A549 cells at 10 uM after 96 hrs by MTT assay; format: functional, cell-based
Influenza A virus H3N2 = test: microbe, parasite or virus in culture; conditions: Hanfang/359/95

O=C(O)c1ccc(O)c(O)c1 [PROTOCATECHUIC ACID]
Activity (HCT-8): inactive | Activity (Bel-7402): inactive | Activity (KETR3): inactive | inhibition [1]: inactive | Activity (BGC-823): inactive | Activity (MCF7): inactive | inhibition at 10 µM [2]: < 30% | Activity (A549): inactive

O=C(O)c1cc(O[C@@H]2O[C@H](CO)[C@@H](O)[C@H](O)[C@H]2O)ccc1O
Activity (HCT-8): inactive | Activity (Bel-7402): inactive | Activity (KETR3): inactive | inhibition [1]: inactive | Activity (BGC-823): inactive | Activity (MCF7): inactive | inhibition at 10 µM [2]: < 30% | Activity (A549): inactive

C=C[C@H]1[C@H](O[C@@H]2O[C@H](CO)[C@@H](O)[C@H](O)[C@H]2O)OC=C(C(=O)[O-])[C@H]1/C=C/c1cc(C(=O)O)c[n+]([C@H](C(=O)O)[C@@H](C)CC)c1
Activity (HCT-8): inactive | Activity (Bel-7402): inactive | Activity (KETR3): inactive | inhibition [1]: inactive | Activity (BGC-823): inactive | Activity (MCF7): inactive | inhibition at 10 µM [2]: < 30% | Activity (A549): inactive

O=C(O)/C=C/c1ccc(O)c(O)c1 [CAFFEIC ACID]
Activity (HCT-8): inactive | Activity (Bel-7402): inactive | Activity (KETR3): inactive | inhibition [1]: inactive | Activity (BGC-823): inactive | Activity (MCF7): inactive | inhibition at 10 µM [2]: 40.3% | Activity (A549): inactive

C[C@@H]1C(=O)O[C@H]2[C@H](O)[C@@]34[C@H]5C[C@@H](C(C)(C)C)[C@]36[C@@H](OC(=O)[C@@H]6O)O[C@@]4(C(=O)O5)[C@@]12O [GINKOLIDE B]
Activity (HCT-8): inactive | Activity (Bel-7402): inactive | Activity (KETR3): inactive | inhibition [1]: inactive | Activity (BGC-823): inactive | Activity (MCF7): inactive | inhibition at 10 µM [2]: 78% | Activity (A549): inactive

COC[C@H]1O[C@@H](n2cnc3c(N)ncnc32)[C@H](O)[C@@H]1O
IC50 (Influenza A virus H3N2): 3.4 µM | Activity (HCT-8): inactive | Activity (Bel-7402): inactive | Activity (KETR3): inactive | inhibition [1]: inactive | Activity (BGC-823): inactive | Activity (MCF7): inactive | inhibition at 10 µM [2]: < 30% | Activity (A549): inactive

C=C[C@H]1[C@H](O[C@@H]2O[C@H](CO)[C@@H](O)[C@H](O)[C@H]2O)OC=C(C(=O)OC)[C@H]1/C=C/c1ccc[n+]([C@@H](C)C(=O)[O-])c1
Activity (HCT-8): inactive | Activity (Bel-7402): inactive | Activity (KETR3): inactive | inhibition [1]: inactive | Activity (BGC-823): inactive | Activity (MCF7): inactive | inhibition at 10 µM [2]: 72.3% | Activity (A549): inactive

COc1cc(C(=O)O)ccc1O[C@@H]1O[C@H](COC(=O)c2ccccc2)[C@@H](O)[C@H](O)[C@H]1O
Activity (HCT-8): inactive | Activity (Bel-7402): inactive | Activity (KETR3): inactive | inhibition [1]: inactive | Activity (BGC-823): inactive | Activity (MCF7): inactive | inhibition at 10 µM [2]: < 30% | Activity (A549): inactive

C=C[C@H]1[C@H](O[C@@H]2O[C@H](CO)[C@@H](O)[C@H](O)[C@H]2O)OC=C(C(=O)[O-])[C@H]1/C=C\c1ccc[n+]([C@H](Cc2ccccc2)C(=O)O)c1
Activity (HCT-8): inactive | Activity (Bel-7402): inactive | Activity (KETR3): inactive | inhibition [1]: inactive | Activity (BGC-823): inactive | Activity (MCF7): inactive | inhibition at 10 µM [2]: < 30% | Activity (A549): inactive

COC(=O)C1=CO[C@@H](O[C@@H]2O[C@H](CO)[C@@H](O)[C@H](O)[C@H]2O)[C@H]2[C@@H]1CC(=O)[C@@H]2C
Activity (HCT-8): inactive | Activity (Bel-7402): inactive | Activity (KETR3): inactive | inhibition [1]: inactive | Activity (BGC-823): inactive | Activity (MCF7): inactive | inhibition at 10 µM [2]: < 30% | Activity (A549): inactive

COC(=O)[C@]1(O)C[C@@H](O)[C@@H](O)[C@H](OC(=O)/C=C/c2ccc(O)c(O)c2)C1 [CHLOROGENIC ACID METHYL ESTER]
Activity (HCT-8): inactive | Activity (Bel-7402): inactive | Activity (KETR3): inactive | inhibition [1]: inactive | Activity (BGC-823): inactive | Activity (MCF7): inactive | inhibition at 10 µM [2]: < 30% | Activity (A549): inactive

COc1cc(/C=C/CO)cc(OC)c1O[C@@H]1O[C@H](CO)[C@@H](O)[C@H](O)[C@H]1O [SYRINGIN]
Activity (HCT-8): inactive | Activity (Bel-7402): inactive | Activity (KETR3): inactive | inhibition [1]: inactive | Activity (BGC-823): inactive | Activity (MCF7): inactive | inhibition at 10 µM [2]: < 30% | Activity (A549): inactive

C=C[C@H]1[C@H](O[C@@H]2O[C@H](CO)[C@@H](O)[C@H](O)[C@H]2O)OC=C(C(=O)[O-])[C@H]1/C=C/c1cc(C(=O)O)c[n+]([C@@H](CC(C)C)C(=O)O)c1
IC50 (Influenza A virus H3N2): 10.3 µM | Activity (HCT-8): inactive | Activity (Bel-7402): inactive | Activity (KETR3): inactive | inhibition [1]: inactive | Activity (BGC-823): inactive | Activity (MCF7): inactive | inhibition at 10 µM [2]: < 30% | Activity (A549): inactive

CCOC(=O)C1=C[C@@H](OC(CC)CC)[C@H](NC(C)=O)[C@@H](N)C1 [OSELTAMIVIR]
IC50 (Influenza A virus H3N2): 1.3 µM

Nc1ncnc2c1ncn2[C@@H]1O[C@H](CO)[C@@H](O)[C@H]1O [ADENOSINE]
Activity (HCT-8): inactive | Activity (Bel-7402): inactive | Activity (KETR3): inactive | inhibition [1]: inactive | Activity (BGC-823): inactive | Activity (MCF7): inactive | inhibition at 10 µM [2]: < 30% | Activity (A549): inactive

O=C(O)/C=C/c1ccc(O[C@@H]2O[C@H](CO)[C@@H](O)[C@H](O)[C@H]2O)c(O)c1
Activity (HCT-8): inactive | Activity (Bel-7402): inactive | Activity (KETR3): inactive | inhibition [1]: inactive | Activity (BGC-823): inactive | Activity (MCF7): inactive | inhibition at 10 µM [2]: < 30% | Activity (A549): inactive

C=C[C@H]1[C@H](O[C@@H]2O[C@H](CO)[C@@H](O)[C@H](O)[C@H]2O)OC=C(C(N)=O)[C@H]1/C=C/c1ccc[n+]([C@@H](CCC(=O)O)C(=O)[O-])c1
Activity (HCT-8): inactive | Activity (Bel-7402): inactive | Activity (KETR3): inactive | inhibition [1]: inactive | Activity (BGC-823): inactive | Activity (MCF7): inactive | inhibition at 10 µM [2]: < 30% | Activity (A549): inactive

O=C(OCc1ccccc1)c1c(O)cccc1O[C@@H]1O[C@H](CO)[C@@H](O)[C@H](O)[C@H]1O
Activity (HCT-8): inactive | Activity (Bel-7402): inactive | Activity (KETR3): inactive | inhibition [1]: inactive | Activity (BGC-823): inactive | Activity (MCF7): inactive | inhibition at 10 µM [2]: < 30% | Activity (A549): inactive

C=C[C@H]1[C@H](O[C@@H]2O[C@H](CO)[C@@H](O)[C@H](O)[C@H]2O)OC=C(C(=O)OC)[C@H]1/C=C/c1cc(C(=O)O)c[n+]([C@H](C(=O)[O-])C(C)C)c1
Activity (HCT-8): inactive | Activity (Bel-7402): inactive | Activity (KETR3): inactive | inhibition [1]: inactive | Activity (BGC-823): inactive | Activity (MCF7): inactive | inhibition at 10 µM [2]: < 30% | Activity (A549): inactive

O=C(/C=C/c1ccc(O)c(O)c1)O[C@@H]1C[C@@](O)(C(=O)O)C[C@@H](O)[C@H]1O
Activity (HCT-8): inactive | Activity (Bel-7402): inactive | Activity (KETR3): inactive | inhibition [1]: inactive | Activity (BGC-823): inactive | Activity (MCF7): inactive | inhibition at 10 µM [2]: < 30% | Activity (A549): inactive

O=C(/C=C/c1ccc(O)c(O)c1)O[C@H]1[C@H](O)C[C@@](O)(C(=O)O)C[C@H]1O
Activity (HCT-8): inactive | Activity (Bel-7402): inactive | Activity (KETR3): inactive | inhibition [1]: inactive | Activity (BGC-823): inactive | Activity (MCF7): inactive | inhibition at 10 µM [2]: < 30% | Activity (A549): inactive

O=C(/C=C/c1ccc(O)c(O)c1)O[C@@H]1C[C@](O)(C(=O)O)C[C@@H](O)[C@H]1O [CHLOROGENIC ACID]
Activity (HCT-8): inactive | Activity (Bel-7402): inactive | Activity (KETR3): inactive | inhibition [1]: inactive | Activity (BGC-823): inactive | Activity (MCF7): inactive | inhibition at 10 µM [2]: < 30% | Activity (A549): inactive

C=C[C@H]1[C@H](O[C@@H]2O[C@H](CO)[C@@H](O)[C@H](O)[C@H]2O)OC=C(C(=O)OC)[C@H]1CC(=O)OC
Activity (HCT-8): inactive | Activity (Bel-7402): inactive | Activity (KETR3): inactive | inhibition [1]: inactive | Activity (BGC-823): inactive | Activity (MCF7): inactive | inhibition at 10 µM [2]: < 30% | Activity (A549): inactive

COC(=O)C1=CO[C@@H]2C[C@H]1C[C@@H]1C(C(=O)OC)=CO[C@@H](O[C@@H]3O[C@H](CO)[C@@H](O)[C@H](O)[C@H]3O)[C@@H]12
Activity (HCT-8): inactive | Activity (Bel-7402): inactive | Activity (KETR3): inactive | inhibition [1]: inactive | Activity (BGC-823): inactive | Activity (MCF7): inactive | inhibition at 10 µM [2]: < 30% | Activity (A549): inactive

C=C[C@H]1[C@H](O[C@@H]2O[C@H](CO)[C@@H](O)[C@H](O)[C@H]2O)OC=C(C(=O)OC)[C@H]1/C=C/CC(=O)OC
Activity (HCT-8): inactive | Activity (Bel-7402): inactive | Activity (KETR3): inactive | inhibition [1]: inactive | Activity (BGC-823): inactive | Activity (MCF7): inactive | inhibition at 10 µM [2]: < 30% | Activity (A549): inactive
